Starred links: 1 amine or outer side, 2 acyl side, 3 side chain; linkers in the order of their positions; H or OH if unused. Positions of bridges follow the written chain, without caps; N, C: chain ends. Non-standard residues stand in square brackets, D forms with d. Residues, ends and D or L forms follow the SMILES beside them. *: point of attachment. Orn(4R-OH,5R-OCH2CH2NMe3+) = C[N+](C)(C)CCO[C@@H](N[*:3])[C@H](O)C[C@H](N[*:1])C(=O)[*:2]; pTerphenylCO(4''-OnC5H11) = CCCCCOc1ccc(-c2ccc(-c3ccc(C(=O)*)cc3)cc2)cc1; hTyr(3S-OH,4S-OH) = N[C@H](C(=O)O)[C@H](O)[C@@H](O)c1ccc(O)cc1; Pro(3S-OH,4S-Me) = C[C@H]1CN[C@H](C(=O)O)[C@H]1O; Hyp = O=C(O)[C@@H]1C[C@@H](O)CN1
Columns and labels:
[1] = Mouse pharmacokinetics, i.v. bolus; conditions: in vivo, iv, male ICR (CD-1) mice, single 1 mg/kg slow i.v. bolus, plasma, LC-MS/MS, noncompartmental from mean profile, n = 3/time point
Procedure: A single 1-mg/kg dose of CD101 or anidulafungin was administered by slow i.v. bolus (∼2 min) to male ICR (CD-1) mice (n = 3/group/time point). Blood samples (via cardiac puncture) were collected for plasma processing predose and at 0.083 (5 min), 0.5, 1, 4, 8, 24, 48, and 72 h postdose. PK profiles were generated based on mean results from the three animals sampled at each time point. In another study, a single 1-, 4-, or 16-mg/kg dose of CD101 was administered by i.p. injection to female ICR (CD-1) mice (n = 3/time point/dose), and blood samples (via cardiac puncture) were drawn for plasma processing at 1, 3, 6, 12, 24, 48, 72, and 96 h postdose.
(§1) For each of the pharmacokinetic studies, whole-blood samples (K3EDTA as anticoagulant) were collected and centrifuged within 30 min of collection. The resulting plasma was harvested and stored at −20°C until analysis. Tissue samples were homogenized by a bead-based homogenizer following the addition of deionized water to excised tissue in a 2:1 (vol/wt) ratio and stored at −20°C until analysis. Prior to analysis, plasma or homogenized tissue samples were quenched with acetonitrile (3:1, acetonitrile-plasma or tissue ratio) containing an appropriate internal standard (isotopically labeled d9-CD101 [mouse and rat] or a structural analog [dog, monkey, and chimpanzee]). Plasma and tissue homogenate concentrations (quantified against calibration standards processed the same way) were determined by reverse-phase, gradient liquid chromatography with tandem mass spectrometric detection (LC-MS/MS) using an AB-SCIEX API 3200Q/4000 mass spectrometry system. Calibration standard ranges were the following: 0.400 (lower limit of quantitation, [LLOQ]) to 200 μg/ml (CD101, mouse), 0.040 (LLOQ) to 10 μg/ml (anidulafungin, mouse), 0.002 (LLOQ) to 10 μg/ml (CD101, rat), 0.005 (LLOQ) to 10 μg/ml (anidulafungin, rat), 0.050 (LLOQ) to 10 μg/ml (CD101, dog), 0.020 (LLOQ) to 10 μg/ml (anidulafungin, dog), 0.010 (LLOQ) to 10 μg/ml (CD101, monkey), 0.001 (LLOQ) to 10 μg/ml (anidulafungin, monkey), 0.015 (LLOQ) to 10 μg/ml (CD101, chimpanzee), and 0.015 (LLOQ) to 10 μg/ml (anidulafungin, chimpanzee). When necessary, dilutions with blank matrix were made for samples that quantified above the upper limit of quantitation. The methods used in the analysis were qualified as fit for purpose: calibration standards were matrix matched with the exception that human plasma calibration standards were used to analyze chimpanzee plasma samples due to the rarity of blank chimpanzee plasma, and, for each analytical batch, triplicate calibration standards were included at the beginning, approximately in the middle, and at the end of the batch. Following analysis, quantitation was carried out by a calibration curve comprising the analyte/internal standard area ratio versus concentration. Analytical batch acceptance followed the general guidance that triplicate standards/quality controls be within ±20% for accuracy (percentage of nominal concentration) and ≤20% for precision (percent coefficient of variation).
(§2) Pharmacokinetic parameters were calculated by noncompartmental analysis using Phoenix WinNonlin (version 6.3; Pharsight, Mountain View, CA) from either individual or mean (mouse) concentration-time profiles. An unpaired t test was used to compare mean exposures from male and female rats.

[2] = Chimpanzee pharmacokinetics, i.v. infusion; format: in vivo, chimpanzees
Procedure: A single 1-mg/kg dose of CD101 or anidulafungin was administered by i.v. infusion (1 h) to female chimpanzees (n = 2/group), and blood samples (via peripheral vein) were drawn for plasma processing at the midpoint of infusion, at the end of infusion, at 2, 4, 8, 12, 24, 48, and 72 h postdose, and on days 5, 7, and 10 postdose.
as §1, §2

[3] = human plasma; ref [9]; cited from earlier work
From the text: In the case of brain concentrations, there was little difference across all the collection intervals. Given the relatively low concentrations and small differences across times, measured concentrations may reflect contamination from residual whole blood during the collec ...

[4] = ref [10], cited from earlier work
Procedure: The half-life of CD101 in human is about 3-fold longer (about 90 h) than that of anidulafungin (about 30 h) ([10]). It should be noted that 90 h is the effective half-life of CD101 (i.e., the half-life that covers the majority of the AUC), with a longer, later-phase half-life evident at lower concentration ...

[5] = in vivo, iv, female chimpanzees, single 1 mg/kg i.v. infusion (1 h), plasma, LC-MS/MS, noncompartmental, n = 2

What does the source list for CCCCCOc1ccc(-c2ccc(-c3ccc(C(=O)N[C@H]4C[C@@H](O)[C@@H](OCC[N+](C)(C)C)NC(=O)[C@@H]5[C@@H](O)[C@@H](C)CN5C(=O)[C@H]([C@@H](C)O)NC(=O)[C@H]([C@H](O)[C@@H](O)c5ccc(O)cc5)NC(=O)[C@@H]5C[C@@H](O)CN5C(=O)[C@H]([C@@H](C)O)NC4=O)cc3)cc2)cc1 [CD101] ({pTerphenylCO(4''-OnC5H11)}-[Orn(4R-OH,5R-OCH2CH2NMe3+)]T[Hyp][hTyr(3S-OH,4S-OH)]T[Pro(3S-OH,4S-Me)]; lactam 1-C)?
AUC(0-inf) [1]: 166 µg·h/mL; AUC(0-t) [1]: 87.3 µg·h/mL; Cmax [1]: 9290 ng/mL; Tmax [1]: 4.98 min; half-life [1]: 25.2 h; clearance ([1]; read-out: CL (clearance)): 6.12 mL/h/kg; Vd ([1]; read-out: Vss (volume of distribution at steady state)): 0.206 L/kg; clearance fold lower than anidulafungin ([2]; chimpanzee, 1 mg/kg i.v. infusion, 0.06 versus 0.42 ml/min/kg, n = 2/group): over 7 fold; t1/2 fold longer than anidulafungin ([2]; chimpanzee, 1 mg/kg i.v. infusion, 81 versus 30 h, n = 2/group): 2.7 fold; AUC(0-inf) [2, 5]: 302 µg·h/mL; AUC(0-t) [2, 5]: 290 µg·h/mL; Cmax [2, 5]: 7150 ng/mL; Tmax [2, 5]: 1 h; half-life [2, 5]: 80.7 h; clearance ([2]; in vivo, iv, female chimpanzees, single 1 mg/kg i.v. infusion (1 h), plasma, LC-MS/MS, noncompartmental, n = 2, read-out: CL (clearance)): 3.41 mL/h/kg; Vd ([2]; in vivo, iv, female chimpanzees, single 1 mg/kg i.v. infusion (1 h), plasma, LC-MS/MS, noncompartmental, n = 2, read-out: Vss (volume of distribution at steady state)): 0.4 L/kg; protein bound [3]: 98.7%; half-life in human ([4]; for CD101 the effective half-life (covers the majority of the AUC)): about 90 h; half-life in human, fold longer than anidulafungin [4]: about 3 fold

Source: publication PMC5365648, “Pharmacokinetics of the Novel Echinocandin CD101 in Multiple Animal Species” (Antimicrobial Agents and Chemotherapy, 2017)
